Measurements reported in PMC10466331, “Fluorescence polarisation activity-based protein profiling for the identification of deoxynojirimycin-type inhibitors selective for lysosomal retaining alpha- and beta-glucosidases” (Chemical Science, 2023).
Where two headings read alike, the source gives them in different places.

Tests used:
Format in all cases: biochemical
[1] = target: T1, recombinant human GAA (rhGAA, Myozyme) (Homo sapiens, UniProt P10253); assay: competitive FluoPol-ABPP assay on rhGAA with TAMRA-ABP II; conditions: for GAA FP% (residual FP-signal): library screen, 5 μM inhibitor, 25 nM ABP II;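 for all read-outs here: fluorescence polarization read at 540 nm excitation and 590 nm emission, background-corrected, normalized to uninhibited probe labelling as 100% and excess cyclosulfate as 0%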
T1 construct: purchased Genzyme

[2] = target: T2, human recombinant lysosomal α-glucosidase GAA (Myozyme) (Homo sapiens, UniProt P10253); assay: fluorogenic substrate (4MU-α-D-glucopyranoside) assay on rhGAA; conditions: Table S2, 4-MU alpha glucoside substrate, read-out: IC50 on rhGAA
T2 construct: purchased Genzyme

[3] = target: T3, ER α-glucosidase GANAB (from Pompe disease Fibroblast lysates) (Homo sapiens, UniProt Q14697); assay: fluorogenic substrate (4MU-α-D-glucopyranoside) assay on GANAB in Pompe fibroblast homogenates;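 note: inhibitor preincubated 30 min at 37 °C with homogenate, then GANAB activity read after 2 h with 3.0 mM fluorogenic substrate in McIlvaine buffer containing 0.1% BSA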
T3 construct: Cellular homogenates of Pompe fibroblasts (1 mg mL^−1) were used as protein source for GANAB; endogenous in cells; host or cells: Pompe disease fibroblasts (homogenate)
T3 sequence (Q14697 29-944): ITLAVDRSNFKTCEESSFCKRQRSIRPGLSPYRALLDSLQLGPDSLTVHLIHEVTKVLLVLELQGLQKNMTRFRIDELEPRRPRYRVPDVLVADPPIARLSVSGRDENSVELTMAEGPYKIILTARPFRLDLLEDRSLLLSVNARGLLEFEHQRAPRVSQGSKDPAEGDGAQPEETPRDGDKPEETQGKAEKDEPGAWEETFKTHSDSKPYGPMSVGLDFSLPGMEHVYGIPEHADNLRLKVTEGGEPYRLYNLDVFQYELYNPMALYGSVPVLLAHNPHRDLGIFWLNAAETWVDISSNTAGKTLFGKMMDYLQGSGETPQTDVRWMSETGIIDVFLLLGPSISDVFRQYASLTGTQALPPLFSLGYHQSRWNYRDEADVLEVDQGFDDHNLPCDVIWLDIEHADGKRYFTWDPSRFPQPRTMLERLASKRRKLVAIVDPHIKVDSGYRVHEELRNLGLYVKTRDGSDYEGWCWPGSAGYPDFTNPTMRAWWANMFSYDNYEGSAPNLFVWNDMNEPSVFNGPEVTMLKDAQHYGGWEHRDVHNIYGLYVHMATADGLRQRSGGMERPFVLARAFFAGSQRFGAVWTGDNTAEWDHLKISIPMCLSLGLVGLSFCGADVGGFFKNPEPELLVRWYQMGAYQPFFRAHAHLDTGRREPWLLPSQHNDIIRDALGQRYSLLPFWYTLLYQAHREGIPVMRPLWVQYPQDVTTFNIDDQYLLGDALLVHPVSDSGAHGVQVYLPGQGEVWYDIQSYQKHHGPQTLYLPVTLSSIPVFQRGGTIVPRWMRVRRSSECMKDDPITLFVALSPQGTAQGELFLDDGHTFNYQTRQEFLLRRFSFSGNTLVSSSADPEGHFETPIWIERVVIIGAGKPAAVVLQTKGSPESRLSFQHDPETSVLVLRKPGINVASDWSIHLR
T3 sequence (P14314 15-528 partner): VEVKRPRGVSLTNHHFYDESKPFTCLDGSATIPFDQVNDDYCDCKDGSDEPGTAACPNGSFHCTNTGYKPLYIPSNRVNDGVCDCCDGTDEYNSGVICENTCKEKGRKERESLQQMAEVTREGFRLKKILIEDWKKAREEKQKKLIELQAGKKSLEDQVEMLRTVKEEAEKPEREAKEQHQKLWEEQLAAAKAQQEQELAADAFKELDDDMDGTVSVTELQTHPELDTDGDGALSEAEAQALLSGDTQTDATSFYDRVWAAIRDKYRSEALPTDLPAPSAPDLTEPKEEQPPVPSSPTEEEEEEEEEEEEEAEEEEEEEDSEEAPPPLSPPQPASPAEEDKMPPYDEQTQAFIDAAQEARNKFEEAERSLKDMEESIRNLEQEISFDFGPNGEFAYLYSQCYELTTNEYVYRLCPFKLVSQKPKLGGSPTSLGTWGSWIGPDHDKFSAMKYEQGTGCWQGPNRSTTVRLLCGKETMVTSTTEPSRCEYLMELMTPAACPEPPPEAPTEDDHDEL

[4] = Table S2, 4-MU alpha glucoside substrate, read-out: IC50 on GANAB

SMILES	GAA FP% (residual FP-signal) [1]	IC50 [2]	IC50 [3, 4]	further results
OC[C@@H]1[C@@H](O)[C@H](O)[C@@H](O)CN1CCCCCOCc1ccc(-c2ccccc2)cc1C(F)(F)F [#ID 118]	2.9%	18 nM	480 nM	–
OC[C@@H]1[C@@H](O)[C@H](O)[C@@H](O)CN1CCCCCOCc1ccc(-c2ccc3c(c2)OCCO3)cc1 [#ID 324]	0.9%	12 nM	570 nM	–
N#Cc1cccc(-c2ccc(COCCCCCN3C[C@H](O)[C@@H](O)[C@H](O)[C@H]3CO)cc2)c1 [#ID 310]	2.5%	54 nM	1000 nM	–
OC[C@@H]1[C@@H](O)[C@H](O)[C@@H](O)CN1CCCCCOCc1ccc(-c2ccc3c(c2)OCCCO3)cc1 [#ID 304]	0.6%	37 nM	1200 nM	–
OC[C@H]1N[C@H](C/C=C/CCOCC23CC4CC(CC(C4)C2)C3)[C@H](O)[C@@H](O)[C@@H]1O [#ID 159]	23%	450 nM	–	–
Cc1ccccc1-c1ccc(COCCCCCN2C[C@H](O)[C@@H](O)[C@H](O)[C@H]2CO)cc1 [#ID 326]	0.8%	12 nM	690 nM	–
C[C@H](OCCCCCN1C[C@H](O)[C@@H](O)[C@H](O)[C@H]1CO)c1ccc(-c2ccccc2)cc1 [#ID 347]	0.4%	42 nM	400 nM	–
OC[C@H]1NC[C@H](O)[C@@H](O)[C@H]1O [#ID 154]	2.4%	–	–	–
OC[C@@H]1[C@@H](O)[C@H](O)[C@@H](O)CN1CCCCCOCc1ccc(-c2ccnc(F)c2)cc1 [#ID 334]	1.5%	160 nM	1600 nM	–
CCCCCOCCCCCN1C[C@H](O)[C@@H](O)[C@H](O)[C@H]1CO [#ID 281]	–	–	–	GAA FP% (residual FP-signal) ([1]; listed as 281): 4.2%; IC50 ([2]; listed as 281): 540 nM; IC50 ([3]; Table S2, 4-MU alpha glucoside substrate, listed as 281, read-out: IC50 on GANAB): 3700 nM
CCCCCCCCN1C[C@H](O)[C@@H](O)[C@H](O)[C@H]1CO [#ID 286]	–	–	–	GAA FP% (residual FP-signal) ([1]; listed as 286): 9.1%; IC50 ([2]; listed as 286): 760 nM; IC50 ([3]; Table S2, 4-MU alpha glucoside substrate, listed as 286, read-out: IC50 on GANAB): 8500 nM
COc1cccc(-c2ccc(COCCCCCN3C[C@H](O)[C@@H](O)[C@H](O)[C@H]3CO)cc2)c1 [#ID 306]	0.8%	15 nM	390 nM	–
CC(C)=CCC/C(C)=C/CC/C(C)=C/COCCCCCN1C[C@H](O)[C@@H](O)[C@H](O)[C@H]1CO [#ID 90]	6.8%	490 nM	2500 nM	–
CCCCCCN1C[C@H](O)[C@@H](O)[C@H](O)[C@H]1CO [#ID 29]	–	–	–	GAA FP% (residual FP-signal) ([1]; listed as 29): 49%; IC50 ([2]; listed as 29): 1500 nM
O=S1(=O)O[C@@H]2[C@H](O)[C@@H](O)[C@H](O)[C@@H](CO)[C@@H]2O1 [Compound 12, 1,6-epi-cyclophellitol cyclosulfate, reference compound]	–	–	–	IC50 ([1]; competitive FluoPol-ABPP, rhGAA 80 nM, ABP II 80 nM, pH 5.0, read-out: apparent IC50 (GAA)): 33 nM
OC[C@@H]1[C@H](O)[C@H](O)[C@@H](O)CN1CCCCCOCC12CC3CC(CC(C3)C1)C2 [#ID 150]	15%	–	12000 nM	–

Second part, led by results:

GAA FP% (residual FP-signal) [1]	IC50 [2]	IC50 [3, 4]	SMILES	further results
0.4%	37 nM	310 nM	OC[C@@H]1[C@@H](O)[C@H](O)[C@@H](O)CN1CCCCCOCc1ccc(-c2ccccc2)cn1 [#ID 336]	–
1.5%	58 nM	370 nM	C[C@@H](OCCCCCN1C[C@H](O)[C@@H](O)[C@H](O)[C@H]1CO)c1ccc(-c2ccccc2)cc1 [#ID 345]	–
0.7%	21 nM	1700 nM	N#Cc1ccccc1-c1ccc(COCCCCCN2C[C@H](O)[C@@H](O)[C@H](O)[C@H]2CO)cc1 [#ID 328]	–
35%	910 nM	60000 nM	CCCCCCCN1C[C@H](O)[C@@H](O)[C@H](O)[C@H]1CO [#ID 31]	–
9.2%	42 nM	2100 nM	OC[C@@H]1[C@@H](O)[C@H](O)[C@@H](O)CN1CCCCOCCC12CC3CC(CC(C3)C1)C2 [#ID 203]	–
4.8%	21 nM	710 nM	OC[C@@H]1[C@@H](O)[C@H](O)[C@@H](O)CN1CCCCCOCc1ccc(-c2ccccc2)cc1F [#ID 35]	–
3.0%	28 nM	4400 nM	OC[C@@H]1[C@@H](O)[C@H](O)[C@@H](O)CN1CCCC(F)(F)COCc1ccc(-c2ccccc2)cc1 [#ID 349]	–
24%	360 nM	2400 nM	O=C(CCCCCN1C[C@H](O)[C@@H](O)[C@H](O)[C@H]1CO)NC12CC3CC(CC(C3)C1)C2 [#ID 18]	–
0.8%	98 nM	1600 nM	OC[C@@H]1[C@@H](O)[C@H](O)[C@@H](O)CN1CCCCCOCc1ccc(-c2ccccc2F)cc1 [#ID 330]	–
13%	100 nM	4100 nM	CCCCCCCCOCCCCCN1C[C@H](O)[C@@H](O)[C@H](O)[C@H]1CO [#ID 25]	–
0.8%	80 nM	1700 nM	OC[C@@H]1[C@@H](O)[C@H](O)[C@@H](O)CN1CCCCCOCc1ccc(-c2ccc(F)nc2)cc1 [#ID 322]	–
0.9%	43 nM	1400 nM	OC[C@@H]1[C@@H](O)[C@H](O)[C@@H](O)CN1CCCCCOCc1ccc(-c2ccc(F)cc2)cc1 [#ID 311]	–
1.0%	82 nM	1300 nM	OC[C@@H]1[C@@H](O)[C@H](O)[C@@H](O)CN1CCCCCOCc1ccc(-c2cncnc2)cc1 [#ID 320]	–
12%	1700 nM	–	CCCCCN1C[C@H](O)[C@@H](O)[C@H](O)[C@H]1CO [#ID 297]	–
0.6%	43 nM	250 nM	OC[C@@H]1[C@@H](O)[C@H](O)[C@@H](O)CN1CCCCCOCc1ccc(-c2ccccc2)cc1 [#ID 343]	–
0.5%	37 nM	1600 nM	Cc1ccc(-c2ccc(COCCCCCN3C[C@H](O)[C@@H](O)[C@H](O)[C@H]3CO)cc2)cc1 [#ID 301]	–
46%	3900 nM	–	CCCCOCCOCCN1C[C@H](O)[C@@H](O)[C@H](O)[C@H]1CO [#ID 200]	–
8.9%	–	5400 nM	OC[C@@H]1[C@@H](O)[C@H](O)[C@@H](O)CN1CCCCCOCC12CC3CC(CC(C3)C1)C2 [Compound 13]	IC50 ([3]; 4MU-α-glucoside substrate, pH 7.0, mean ± SD, 3 technical replicates, read-out: IC50 GANAB): 5360 ± 570 nM
35%	1300 nM	–	OC[C@@H]1[C@H](O)[C@@H](O)[C@H](O)CN1CCCCCOCc1ccc(-c2ccccc2)cc1 [#ID 122]	–
